Results as given in patent US9840498B2, “Substituted quinazolin-4-one derivatives” (NOVARTIS AG, priority 2013, dated 2017).

Columns and labels:
[1] = molecular target: human phosphoinositide-3 kinase (PI3K) delta (Homo sapiens (Human), UniProt O00329); test: PI3K-mediated Akt 1/2 (S473) phosphorylation in Rat-1 cells overexpressing PI3K delta; assay type: cell-based; conditions: cellular assay, p-AKT(Ser473), read-out: Cell PI3K delta IC50
PI3K alpha = PI3K alpha (Homo sapiens (Human), UniProt P42336); test: Biochemical assay for PI3Kalpha (Kinase-Glo format); conditions: enzymatic assay
Sequence of PI3K alpha (P42336 21-1068): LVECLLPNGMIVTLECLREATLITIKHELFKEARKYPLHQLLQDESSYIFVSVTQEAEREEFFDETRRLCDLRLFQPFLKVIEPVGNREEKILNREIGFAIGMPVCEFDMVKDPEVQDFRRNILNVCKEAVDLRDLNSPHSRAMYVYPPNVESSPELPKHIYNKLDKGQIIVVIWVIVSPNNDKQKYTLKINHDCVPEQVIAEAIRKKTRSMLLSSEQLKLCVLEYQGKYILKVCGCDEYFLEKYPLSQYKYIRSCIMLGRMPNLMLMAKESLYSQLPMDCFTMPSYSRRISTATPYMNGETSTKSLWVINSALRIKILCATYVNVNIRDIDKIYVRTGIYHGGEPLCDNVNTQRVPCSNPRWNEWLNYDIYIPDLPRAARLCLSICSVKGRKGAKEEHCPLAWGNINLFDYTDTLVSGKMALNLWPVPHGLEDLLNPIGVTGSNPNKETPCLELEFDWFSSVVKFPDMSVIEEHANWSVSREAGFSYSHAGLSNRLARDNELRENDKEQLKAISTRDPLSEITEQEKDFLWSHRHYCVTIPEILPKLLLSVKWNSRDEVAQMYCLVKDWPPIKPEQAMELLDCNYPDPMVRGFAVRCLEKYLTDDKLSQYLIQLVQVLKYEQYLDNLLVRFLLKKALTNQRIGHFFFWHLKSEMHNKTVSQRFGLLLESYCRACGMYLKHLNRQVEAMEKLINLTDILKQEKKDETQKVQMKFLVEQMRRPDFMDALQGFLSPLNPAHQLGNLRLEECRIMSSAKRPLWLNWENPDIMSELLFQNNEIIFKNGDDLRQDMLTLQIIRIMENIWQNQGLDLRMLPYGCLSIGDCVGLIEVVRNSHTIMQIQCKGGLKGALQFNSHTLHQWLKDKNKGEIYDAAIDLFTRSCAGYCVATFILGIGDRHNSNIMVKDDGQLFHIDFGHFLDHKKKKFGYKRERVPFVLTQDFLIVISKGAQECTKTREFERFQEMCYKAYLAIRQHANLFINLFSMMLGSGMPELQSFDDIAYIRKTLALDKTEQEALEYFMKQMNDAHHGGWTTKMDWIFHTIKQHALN
Sequence of PI3K alpha (P27986 461-568 partner): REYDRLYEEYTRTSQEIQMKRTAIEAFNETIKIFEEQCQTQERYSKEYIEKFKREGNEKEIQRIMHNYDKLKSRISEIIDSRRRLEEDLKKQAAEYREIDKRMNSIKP
Method: 1.1 Generation of Gene Constructs, Protein Expression and Purification
For the enzymatic assays, the preparation of PI3K gene constructs, protein expression and purification for HTS are described in WO2012/004299.
1.2 Biochemical Assays for PI3Kalpha, PI3Kbeta (Kinase-Glo Format)
The kinase reaction is performed in a final volume of 50 μl per well of a half area COSTAR, 96 well plate. The final concentrations of ATP and phosphatidyl inositol in the assay are 5 μM and 6 μg/mL, respectively. The reaction is started by the addition of PI3 kinase, e.g. PI3 kinase α.
The components of the assay are added per well as follows: • 10 μl test compound in 5% DMSO per well in […]. • Total activity is determined by addition 10 μl of 5% vol/vol DMSO in the first 4 wells of column 1 and the last 4 wells of column 12. • The background is determined by addition of 10 μM control compound to the last 4 wells of column 1 and the first 4 wells of column 12. • 2 mL ‘Assay mix’ are prepared per plate: • 1.912 mL of HEPES assay buffer • 8.33 μl of 3 mM stock of ATP giving a final concentration of 5 μM per well • 1 μl of [^33P]ATP on the activity date giving 0.05 μCi per well • 30 μl of 1 mg/mL PI stock giving a final concentration of 6 μg/mL per well • 5 μl of 1 M stock MgCl2 giving a final concentration of 1 mM per well • 20 μl of the assay mix are added per well. • 2 mL ‘Enzyme mix’ are prepared per plate (x* μl PI3 kinase p110α in 2 mL of kinase buffer). The ‘Enzyme mix’ is kept on ice during addition to the assay plates. * The volume of enzyme is dependent on the enzymatic activity of the batch in use. • 20 μl ‘Enzyme mix’ are added/well to start the reaction. • The plate is then incubated at room temperature for 90 minutes. • The reaction is terminated by the addition of 50 μl WGA-SPA bead (wheat germ agglutinin-coated Scintillation Proximity Assay beads) suspension per well. • The assay plate is sealed using TopSeal-S (heat seal for polystyrene microplates, PerkinElmer LAS [Deutschland] GmbH, Rodgau, Germany) and incubated at room temperature for at least 60 minutes. • The assay plate is then centrifuged at 1500 rpm for 2 minutes using the Jouan bench top centrifuge (Jouan Inc., Nantes, France). • The assay plate is counted using a Packard TopCount, each well being counted for 20 seconds.
In a more preferred assay, the kinase reaction is performed in a final volume of 10 μl per well of a low volume non-binding CORNING, 384 well black plate (Cat. No. #3676). The final concentrations of ATP and phosphatidyl inositol (PI) in the assay are 1 μM and 10 μg/mL, respectively. The reaction is started by the addition of ATP.
The components of the assay are added per well as follows: […]

Sequence of human phosphoinositide-3 kinase (PI3K) delta (O00329 whole entry): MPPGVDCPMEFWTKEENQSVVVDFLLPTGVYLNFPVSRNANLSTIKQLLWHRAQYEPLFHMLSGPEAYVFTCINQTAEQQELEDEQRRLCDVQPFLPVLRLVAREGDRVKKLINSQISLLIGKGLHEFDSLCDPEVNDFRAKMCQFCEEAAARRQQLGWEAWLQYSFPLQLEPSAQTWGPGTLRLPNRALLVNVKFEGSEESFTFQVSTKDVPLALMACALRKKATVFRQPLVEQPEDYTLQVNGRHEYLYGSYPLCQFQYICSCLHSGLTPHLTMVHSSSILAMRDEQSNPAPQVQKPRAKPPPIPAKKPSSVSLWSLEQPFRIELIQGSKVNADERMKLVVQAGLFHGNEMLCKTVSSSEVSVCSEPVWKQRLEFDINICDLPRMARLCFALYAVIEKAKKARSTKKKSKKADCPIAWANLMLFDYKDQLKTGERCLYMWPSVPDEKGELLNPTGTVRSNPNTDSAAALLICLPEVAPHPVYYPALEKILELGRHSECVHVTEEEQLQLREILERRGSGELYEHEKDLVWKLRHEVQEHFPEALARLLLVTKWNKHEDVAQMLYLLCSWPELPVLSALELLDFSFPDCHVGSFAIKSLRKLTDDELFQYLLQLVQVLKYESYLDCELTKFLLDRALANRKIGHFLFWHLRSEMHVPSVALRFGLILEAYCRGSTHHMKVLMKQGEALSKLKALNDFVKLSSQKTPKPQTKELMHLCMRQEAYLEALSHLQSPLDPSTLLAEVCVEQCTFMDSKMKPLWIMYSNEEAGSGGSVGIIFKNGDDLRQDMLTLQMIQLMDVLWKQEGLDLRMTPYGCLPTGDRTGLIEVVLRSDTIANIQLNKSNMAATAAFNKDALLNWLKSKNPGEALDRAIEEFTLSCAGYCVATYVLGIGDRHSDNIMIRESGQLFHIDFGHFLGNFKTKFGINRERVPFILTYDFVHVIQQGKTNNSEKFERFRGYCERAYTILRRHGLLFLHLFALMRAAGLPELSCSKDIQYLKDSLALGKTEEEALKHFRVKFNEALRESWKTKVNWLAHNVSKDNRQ
Sequence of human phosphoinositide-3 kinase (PI3K) delta (Q63787 whole entry partner): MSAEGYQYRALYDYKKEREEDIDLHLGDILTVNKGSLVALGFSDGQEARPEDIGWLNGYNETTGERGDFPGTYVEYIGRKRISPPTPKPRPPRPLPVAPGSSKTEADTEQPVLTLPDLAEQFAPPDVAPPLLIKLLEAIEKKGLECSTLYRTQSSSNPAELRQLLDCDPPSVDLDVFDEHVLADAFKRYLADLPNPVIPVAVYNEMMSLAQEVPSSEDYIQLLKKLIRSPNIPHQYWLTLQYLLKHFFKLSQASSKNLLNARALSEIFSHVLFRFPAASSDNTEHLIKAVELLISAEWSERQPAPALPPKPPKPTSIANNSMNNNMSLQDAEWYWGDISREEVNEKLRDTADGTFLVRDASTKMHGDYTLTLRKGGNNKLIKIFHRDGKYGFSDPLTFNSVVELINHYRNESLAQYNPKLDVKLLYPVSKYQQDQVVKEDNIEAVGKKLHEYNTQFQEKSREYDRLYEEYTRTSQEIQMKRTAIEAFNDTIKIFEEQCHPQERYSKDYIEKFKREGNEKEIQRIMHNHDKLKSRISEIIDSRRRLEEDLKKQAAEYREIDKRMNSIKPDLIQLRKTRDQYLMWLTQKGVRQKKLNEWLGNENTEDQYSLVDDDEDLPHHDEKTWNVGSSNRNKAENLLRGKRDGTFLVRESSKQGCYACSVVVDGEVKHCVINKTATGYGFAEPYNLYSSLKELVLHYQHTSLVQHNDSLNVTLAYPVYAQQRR

Compound | IC50 [1] [nM] | IC50 (PI3K alpha) [nM]
Cc1nc(N)nc(N2C[C@@H](F)C[C@H]2c2nc3cccc(-c4cnn(C)c4)c3c(=O)n2-c2ccccc2)c1C#N [Example 30, 2-Amino-4-((2S,4S)-4-fluoro-2-(5-(1-methyl-1H-pyrazol-4-yl)-4-oxo-3-phenyl-3,4-dihydroquinazolin-2-yl)pyrrolidin-1-yl)-6-methylpyrimidine-5-carbonitrile] | < 10 | 450
Cc1nc(N)nc(N2C[C@@H](O)C[C@H]2c2nc3ccc(F)c(-c4cn(C)cn4)c3c(=O)n2-c2ccccc2)c1C#N [Example 31, 2-Amino-4-((2S,4S)-2-(6-fluoro-5-(1-methyl-1H-imidazol-4-yl)-4-oxo-3-phenyl-3,4-dihydroquinazolin-2-yl)-4-hydroxypyrrolidin-1-yl)-6-methylpyrimidine-5-carbonitrile] | 120 | 570
CCOc1ncc(-c2cccc3nc([C@@H]4CCCN4c4nc(N)nc(C)c4C#N)n(-c4ccccc4)c(=O)c23)cn1 [Example 32, (S)-2-Amino-4-(2-(5-(2-ethoxypyrimidin-5-yl)-4-oxo-3-phenyl-3,4-dihydroquinazolin-2-yl)pyrrolidin-1-yl)-6-methylpyrimidine-5-carbonitrile] | < 3 | 490
N#Cc1c(N)ncnc1N1CCC[C@H]1c1nc2cccc(C#CCO)c2c(=O)n1-c1ccccc1 [Example 33, (S)-4-Amino-6-(2-(5-(3-hydroxyprop-1-yn-1-yl)-4-oxo-3-phenyl-3,4-dihydroquinazolin-2-yl)pyrrolidin-1-yl)pyrimidine-5-carbonitrile] | 14 | 620
